Measured values reported in PubChem BioAssay (NCI).
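Grown in 96-well plates, cells were treated for 48 hours with each compound at five concentrations. Insufficient inhibition: endpoint recorded as highest concentration tested. The concentration for full growth arrest is given as TGI.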

Key:
Experiment in all cases: DTP human tumour cell line panel, 48 h
SK-OV-3 ovarian = tested on: SK-OV-3 ovarian
ACHN renal = tested on: ACHN renal
NCI-H460 lung = tested on: NCI-H460 lung
TK-10 renal = tested on: TK-10 renal
786-0 renal = tested on: 786-0 renal
M14 melanoma = tested on: M14 melanoma
UACC-257 melanoma = tested on: UACC-257 melanoma
T-47D breast = tested on: T-47D breast
SR leukemia = tested on: SR leukemia
NCI-H23 lung = tested on: NCI-H23 lung
DU-145 prostate = tested on: DU-145 prostate
HS 578T breast = tested on: HS 578T breast
U251 CNS = tested on: U251 CNS
NCI-H226 lung = tested on: NCI-H226 lung
IGROV1 ovarian = tested on: IGROV1 ovarian
UO-31 renal = tested on: UO-31 renal
UACC-62 melanoma = tested on: UACC-62 melanoma
OVCAR-5 ovarian = tested on: OVCAR-5 ovarian
LOX IMVI melanoma = tested on: LOX IMVI melanoma
KM12 colon = tested on: KM12 colon
SF-539 CNS = tested on: SF-539 CNS
HCT-15 colon = tested on: HCT-15 colon
MOLT-4 leukemia = tested on: MOLT-4 leukemia
SN12C renal = tested on: SN12C renal
SNB-19 CNS = tested on: SNB-19 CNS
HOP-92 NSCLC = tested on: HOP-92 NSCLC
SK-MEL-2 melanoma = tested on: SK-MEL-2 melanoma
SF-295 CNS = tested on: SF-295 CNS
SK-MEL-28 melanoma = tested on: SK-MEL-28 melanoma
OVCAR-4 ovarian = tested on: OVCAR-4 ovarian
NCI-H522 lung = tested on: NCI-H522 lung
A498 renal = tested on: A498 renal
MALME-3M melanoma = tested on: MALME-3M melanoma
HCT-116 colon = tested on: HCT-116 colon
SF-268 CNS = tested on: SF-268 CNS
NCI/ADR-RES ovarian = tested on: NCI/ADR-RES ovarian
HL-60(TB) leukemia = tested on: HL-60(TB) leukemia
HT29 colon = tested on: HT29 colon
MCF7 breast = tested on: MCF7 breast
CAKI-1 renal = tested on: CAKI-1 renal
EKVX NSCLC = tested on: EKVX NSCLC
A549 NSCLC = tested on: A549 NSCLC
BT-549 breast = tested on: BT-549 breast
COLO 205 colon = tested on: COLO 205 colon
RXF 393 renal = tested on: RXF 393 renal
OVCAR-3 ovarian = tested on: OVCAR-3 ovarian
HOP-62 NSCLC = tested on: HOP-62 NSCLC
OVCAR-8 ovarian = tested on: OVCAR-8 ovarian
PC-3 prostate = tested on: PC-3 prostate
SNB-75 CNS = tested on: SNB-75 CNS
MDA-MB-435 = tested on: MDA-MB-435
SK-MEL-5 melanoma = tested on: SK-MEL-5 melanoma
MDA-N = tested on: MDA-N
SW-620 colon = tested on: SW-620 colon
K-562 leukemia = tested on: K-562 leukemia
CCRF-CEM leukemia = tested on: CCRF-CEM leukemia
HCC-2998 colon = tested on: HCC-2998 colon
RPMI-8226 leukemia = tested on: RPMI-8226 leukemia
MDA-MB-231 breast = tested on: MDA-MB-231 breast

O=C(O)Cc1ccc(Nc2nc3cc(C(F)(F)F)ccc3nc2C(=O)O)cc1
TGI (SK-OV-3 ovarian): > 100 µM
TGI (ACHN renal): > 100 µM
TGI (NCI-H460 lung): > 100 µM
TGI (TK-10 renal): > 100 µM
TGI (786-0 renal): > 100 µM
TGI (M14 melanoma): > 100 µM
TGI (UACC-257 melanoma): > 100 µM
TGI (T-47D breast): > 100 µM
TGI (SR leukemia): > 100 µM
TGI (NCI-H23 lung): > 100 µM
TGI (DU-145 prostate): > 100 µM
TGI (HS 578T breast): > 100 µM
TGI (U251 CNS): > 100 µM
TGI (NCI-H226 lung): > 100 µM
TGI (IGROV1 ovarian): > 100 µM
TGI (UO-31 renal): > 100 µM
TGI (UACC-62 melanoma): > 100 µM
TGI (OVCAR-5 ovarian): > 100 µM
TGI (LOX IMVI melanoma): > 100 µM
TGI (KM12 colon): > 100 µM
TGI (SF-539 CNS): > 100 µM
TGI (HCT-15 colon): > 100 µM
TGI (MOLT-4 leukemia): > 100 µM
TGI (SN12C renal): > 100 µM
TGI (SNB-19 CNS): > 100 µM
TGI (HOP-92 NSCLC): > 100 µM
TGI (SK-MEL-2 melanoma): > 100 µM
TGI (SF-295 CNS): > 100 µM
TGI (SK-MEL-28 melanoma): > 100 µM
TGI (OVCAR-4 ovarian): > 100 µM
TGI (NCI-H522 lung): > 100 µM
TGI (A498 renal): > 100 µM
TGI (MALME-3M melanoma): > 100 µM
TGI (HCT-116 colon): > 100 µM
TGI (SF-268 CNS): > 100 µM
TGI (NCI/ADR-RES ovarian): > 100 µM
TGI (HL-60(TB) leukemia): > 100 µM
TGI (HT29 colon): > 100 µM
TGI (MCF7 breast): > 100 µM
TGI (CAKI-1 renal): > 100 µM
TGI (EKVX NSCLC): > 100 µM
TGI (A549 NSCLC): > 100 µM
TGI (BT-549 breast): > 100 µM
TGI (COLO 205 colon): > 100 µM
TGI (RXF 393 renal): > 100 µM
TGI (OVCAR-3 ovarian): > 100 µM
TGI (HOP-62 NSCLC): > 100 µM
TGI (OVCAR-8 ovarian): > 100 µM
TGI (PC-3 prostate): > 100 µM
TGI (SNB-75 CNS): > 100 µM
TGI (MDA-MB-435): > 100 µM
TGI (SK-MEL-5 melanoma): > 100 µM
TGI (MDA-N): > 100 µM
TGI (SW-620 colon): > 100 µM

Cc1ccc(S(=O)(=O)OC2C(O)C(O)OC2C(c2cc(O)c3c(c2O)C(=O)c2ccccc2C3=O)c2cc(O)c3c(c2O)C(=O)c2ccccc2C3=O)cc1 (configuration not stated)
TGI (K-562 leukemia): > 10 µM
TGI (SK-OV-3 ovarian): > 10 µM
TGI (CCRF-CEM leukemia): > 10 µM
TGI (TK-10 renal): > 10 µM
TGI (786-0 renal): > 10 µM
TGI (M14 melanoma): 8.71 µM
TGI (UACC-257 melanoma): > 10 µM
TGI (T-47D breast): > 10 µM
TGI (SR leukemia): > 10 µM
TGI (NCI-H23 lung): 8.93 µM
TGI (HCC-2998 colon): > 10 µM
TGI (DU-145 prostate): > 10 µM
TGI (IGROV1 ovarian): > 10 µM
TGI (UACC-62 melanoma): > 10 µM
TGI (KM12 colon): > 10 µM
TGI (HCT-15 colon): > 10 µM
TGI (MOLT-4 leukemia): > 10 µM
TGI (SN12C renal): > 10 µM
TGI (SF-295 CNS): 9.33 µM
TGI (SK-MEL-28 melanoma): > 10 µM
TGI (RPMI-8226 leukemia): 8.67 µM
TGI (MALME-3M melanoma): 6.98 µM
TGI (HL-60(TB) leukemia): 4.52 µM
TGI (HT29 colon): > 10 µM
TGI (MCF7 breast): > 10 µM
TGI (CAKI-1 renal): 8.9 µM
TGI (EKVX NSCLC): > 10 µM
TGI (A549 NSCLC): > 10 µM
TGI (COLO 205 colon): 4.85 µM
TGI (RXF 393 renal): > 10 µM
TGI (HOP-62 NSCLC): > 10 µM
TGI (OVCAR-8 ovarian): > 10 µM
TGI (PC-3 prostate): 9.43 µM
TGI (SNB-75 CNS): > 10 µM
TGI (MDA-MB-231 breast): > 10 µM
TGI (SK-MEL-5 melanoma): > 10 µM
TGI (MDA-N): > 10 µM
TGI (SW-620 colon): > 10 µM

c1cc2c(s1)-c1sccc1C21OCCO1
TGI (K-562 leukemia): > 100 µM
TGI (CCRF-CEM leukemia): > 100 µM
TGI (ACHN renal): > 100 µM
TGI (NCI-H460 lung): > 100 µM
TGI (TK-10 renal): > 100 µM
TGI (786-0 renal): > 100 µM
TGI (M14 melanoma): > 100 µM
TGI (UACC-257 melanoma): > 100 µM
TGI (T-47D breast): 80.9 µM
TGI (SR leukemia): > 100 µM
TGI (NCI-H23 lung): > 100 µM
TGI (HCC-2998 colon): > 100 µM
TGI (DU-145 prostate): > 100 µM
TGI (U251 CNS): > 100 µM
TGI (NCI-H226 lung): > 100 µM
TGI (UO-31 renal): > 100 µM
TGI (UACC-62 melanoma): > 100 µM
TGI (OVCAR-5 ovarian): > 100 µM
TGI (LOX IMVI melanoma): > 100 µM
TGI (KM12 colon): > 100 µM
TGI (SF-539 CNS): > 100 µM
TGI (HCT-15 colon): > 100 µM
TGI (MOLT-4 leukemia): > 100 µM
TGI (SN12C renal): > 100 µM
TGI (SNB-19 CNS): > 100 µM
TGI (SK-MEL-2 melanoma): > 100 µM
TGI (SF-295 CNS): > 100 µM
TGI (SK-MEL-28 melanoma): > 100 µM
TGI (RPMI-8226 leukemia): > 100 µM
TGI (OVCAR-4 ovarian): > 100 µM
TGI (NCI-H522 lung): > 100 µM
TGI (MALME-3M melanoma): > 100 µM
TGI (HCT-116 colon): > 100 µM
TGI (SF-268 CNS): > 100 µM
TGI (NCI/ADR-RES ovarian): > 100 µM
TGI (HL-60(TB) leukemia): > 100 µM
TGI (HT29 colon): > 100 µM
TGI (MCF7 breast): > 100 µM
TGI (CAKI-1 renal): > 100 µM
TGI (EKVX NSCLC): > 100 µM
TGI (A549 NSCLC): > 100 µM
TGI (BT-549 breast): > 100 µM
TGI (COLO 205 colon): > 100 µM
TGI (OVCAR-3 ovarian): > 100 µM
TGI (HOP-62 NSCLC): > 100 µM
TGI (OVCAR-8 ovarian): > 100 µM
TGI (MDA-MB-231 breast): > 100 µM
TGI (MDA-MB-435): > 100 µM
TGI (SK-MEL-5 melanoma): > 100 µM
TGI (MDA-N): > 100 µM

CCOC(=O)c1c(N=P(c2ccccc2)(c2ccccc2)c2ccccc2)nnc(-c2ccccc2)c1-c1ccccc1
TGI (K-562 leukemia): > 100 µM
TGI (SK-OV-3 ovarian): > 100 µM
TGI (CCRF-CEM leukemia): > 100 µM
TGI (ACHN renal): > 100 µM
TGI (NCI-H460 lung): > 100 µM
TGI (TK-10 renal): > 100 µM
TGI (786-0 renal): > 100 µM
TGI (M14 melanoma): > 100 µM
TGI (UACC-257 melanoma): > 100 µM
TGI (T-47D breast): > 100 µM
TGI (SR leukemia): > 100 µM
TGI (NCI-H23 lung): > 100 µM
TGI (HCC-2998 colon): > 100 µM
TGI (DU-145 prostate): > 100 µM
TGI (U251 CNS): > 100 µM
TGI (NCI-H226 lung): > 100 µM
TGI (IGROV1 ovarian): > 100 µM
TGI (UO-31 renal): > 100 µM
TGI (UACC-62 melanoma): > 100 µM
TGI (OVCAR-5 ovarian): > 100 µM
TGI (LOX IMVI melanoma): > 100 µM
TGI (KM12 colon): > 100 µM
TGI (SF-539 CNS): > 100 µM
TGI (HCT-15 colon): > 100 µM
TGI (MOLT-4 leukemia): > 100 µM
TGI (SN12C renal): > 100 µM
TGI (SNB-19 CNS): > 100 µM
TGI (HOP-92 NSCLC): > 100 µM
TGI (SK-MEL-2 melanoma): > 100 µM
TGI (SF-295 CNS): > 100 µM
TGI (SK-MEL-28 melanoma): > 100 µM
TGI (OVCAR-4 ovarian): > 100 µM
TGI (NCI-H522 lung): > 100 µM
TGI (A498 renal): 99.3 µM
TGI (MALME-3M melanoma): > 100 µM
TGI (HCT-116 colon): > 100 µM
TGI (SF-268 CNS): > 100 µM
TGI (NCI/ADR-RES ovarian): > 100 µM
TGI (HL-60(TB) leukemia): > 100 µM
TGI (HT29 colon): > 100 µM
TGI (MCF7 breast): > 100 µM
TGI (EKVX NSCLC): > 100 µM
TGI (A549 NSCLC): > 100 µM
TGI (COLO 205 colon): > 100 µM
TGI (RXF 393 renal): > 100 µM
TGI (OVCAR-3 ovarian): > 100 µM
TGI (HOP-62 NSCLC): > 100 µM
TGI (OVCAR-8 ovarian): > 100 µM
TGI (PC-3 prostate): > 100 µM
TGI (SNB-75 CNS): > 100 µM
TGI (MDA-MB-231 breast): > 100 µM
TGI (MDA-MB-435): > 100 µM
TGI (SK-MEL-5 melanoma): > 100 µM
TGI (MDA-N): > 100 µM
TGI (SW-620 colon): > 100 µM
